We go through 17 compounds from PMC11003481, “Synthesis, biological evaluation, and computational studies of N-benzyl pyridinium–curcumin derivatives as potent AChE inhibitors with antioxidant activity” (Journal of Enzyme Inhibition and Medicinal Chemistry, 2023).

One may read the IC50 as the concentration needed to halve the response being measured. For orientation: Ki means the dissociation constant of the complex between target and ligand, obtained from inhibition or displacement.

Each structure is given as a SMILES string. “And” between values parts separate entries of the source, which are not always exact repeats. Identical values can stand only once. Where only a bound is given, the exact number is not on record here.

Experiment [1] addresses acetylcholinesterase (eeAChE, from Electrophorus electricus) (Electrophorus electricus, UniProt O42275). Briefly: biochemical. The following applies: for Selectivity Index (SI) (AChE): Selectivity ratio [IC50(BChE)/IC50(AChE)]; for IC50: eeAChE, mean ± SEM of three independent experiments, duplicate samples, read-out: IC50 ± SEM AChE. Here is the method: (§1) The AChE and BChE inhibitory activity assays were performed using a BioTek Epoch 2 microplate spectrophotometer in clear, flat-bottom 96-well plates. […] To each well, 295 µL phosphate buffer pH 8.0, 10 µL enzyme solution (AChE/BChE), and 10 µL target compound solutions were added together and allowed to stand for 4 min at room temperature. Then, 10 µL of 0.01 M solution freshly prepared Ellman’s reagent 5,5′-dithiobis(2-nitrobenzoic acid) (DTNB) was added to each well. The reaction in the wells was started by the addition of 2 µL of 0.075 M solution freshly prepared substrate (ATCh (acetylthiocholine iodide)/BTCh (S-butyrylthiocholine iodide)) solution. The solution was mixed immediately and incubated for 2:30 min for AChE or for 5 min for BChE inside the microplate reader at 26 °C. […] The IC50 values were calculated graphically by nonlinear regression analysis of inhibition curves that were obtained by plotting the logarithm of the inhibitor concentrations versus the percentage of inhibition (log(inhibitor) vs. normalised response) using GraphPad Prism 8 software (See Supplementary Information for details).

In experiment [2] the target is T1, butyrylcholinesterase (eqBChE, from equine serum) (Equus caballus, UniProt P81908).
T1 construct: butyrylcholinesterase (eqBChE, from equine serum); from tissue; host or cells: equine serum
T1 sequence (P81908 whole entry): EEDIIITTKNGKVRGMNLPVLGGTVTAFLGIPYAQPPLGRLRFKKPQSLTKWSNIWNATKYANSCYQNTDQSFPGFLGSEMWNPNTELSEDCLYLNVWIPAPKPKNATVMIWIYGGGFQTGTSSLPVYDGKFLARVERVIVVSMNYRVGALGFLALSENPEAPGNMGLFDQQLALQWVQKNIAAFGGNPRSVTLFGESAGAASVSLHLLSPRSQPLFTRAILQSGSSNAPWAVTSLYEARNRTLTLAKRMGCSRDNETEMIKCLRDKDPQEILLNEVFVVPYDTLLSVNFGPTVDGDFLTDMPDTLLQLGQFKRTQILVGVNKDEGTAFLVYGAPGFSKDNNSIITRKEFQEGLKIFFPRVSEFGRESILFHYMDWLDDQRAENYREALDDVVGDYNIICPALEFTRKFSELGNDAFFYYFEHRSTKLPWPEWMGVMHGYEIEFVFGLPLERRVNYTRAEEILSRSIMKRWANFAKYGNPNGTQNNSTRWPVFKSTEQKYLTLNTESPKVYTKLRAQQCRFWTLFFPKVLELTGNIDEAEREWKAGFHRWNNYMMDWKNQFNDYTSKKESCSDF
Briefly: biochemical. The conditions noted are these: mean ± SEM of three independent experiments, duplicate samples, read-out: IC50 ± SEM BChE. As for the experimental part:
as §1

A short description of experiment [3]: ABTS radical cation decolorisation antioxidant assay. As for the experimental part:
The antioxidant activity was determined using a radical cation (ABTS^.+) decolorisation assay, as described by Xiao et al.[21] with a few modifications. The assay used a BioTek Epoch 2 microplate spectrophotometer (Agilent, USA) with clear, flat-bottom 96-well plates. The 7 mmol/L ABTS^.+ stock solution was prepared by dissolving 96.02 mg ABTS in acetic acid buffer (pH 4.5) and to a final volume of 25 ml, which was kept in the dark at 0–4 °C. A 2.45 mmol/L potassium persulfate (K2S2O8) stock solution was prepared by dissolving 66.24 mg K2S2O8 in acetic acid buffer solution with pH 4.5, and then diluted to 100 ml and kept in the dark at 0–4 °C. The ABTS working solution was prepared by mixing similar quantities of 7 mmol/L ABTS and 2.45 mmol/L K2S2O8. This solution was stored in a dark cabinet for 16 h before use, when it was diluted with distilled water to obtain an absorbance of 0.70 at 734 nm. In a clear, flat-bottom 96-well plate, 200 μL of ABTS working solution and 10.0 μL sample solution at different concentrations (0.0312–0.5 mg/mL) were mixed well and incubated in the dark for 7 min before the absorbance was measured at 734 nm using a microplate reader. A blank was run for each assay, and all measurements were performed after 7 min. The ABTS scavenging capacity of inhibitors was compared with that of trolox and α-tocopherol. […]

In another experiment the target is eeAChE (Electrophorus electricus, UniProt O42275). Briefly: biochemical. The following applies: from slopes of Lineweaver-Burk plots versus inhibitor concentration; substrate ATCh; read-out: Ki ± SEM eeAChE. The class given is biochemical. Here is the method: The slopes of the Lineweaver-Burk reciprocal plots against the concentrations of the compound (inhibitor) were plotted to obtain the Ki values for the prepared compounds (Table 1). The value at which the line intersects the x-axis is -Ki.
Chain of eeAChE (O42275 24-633): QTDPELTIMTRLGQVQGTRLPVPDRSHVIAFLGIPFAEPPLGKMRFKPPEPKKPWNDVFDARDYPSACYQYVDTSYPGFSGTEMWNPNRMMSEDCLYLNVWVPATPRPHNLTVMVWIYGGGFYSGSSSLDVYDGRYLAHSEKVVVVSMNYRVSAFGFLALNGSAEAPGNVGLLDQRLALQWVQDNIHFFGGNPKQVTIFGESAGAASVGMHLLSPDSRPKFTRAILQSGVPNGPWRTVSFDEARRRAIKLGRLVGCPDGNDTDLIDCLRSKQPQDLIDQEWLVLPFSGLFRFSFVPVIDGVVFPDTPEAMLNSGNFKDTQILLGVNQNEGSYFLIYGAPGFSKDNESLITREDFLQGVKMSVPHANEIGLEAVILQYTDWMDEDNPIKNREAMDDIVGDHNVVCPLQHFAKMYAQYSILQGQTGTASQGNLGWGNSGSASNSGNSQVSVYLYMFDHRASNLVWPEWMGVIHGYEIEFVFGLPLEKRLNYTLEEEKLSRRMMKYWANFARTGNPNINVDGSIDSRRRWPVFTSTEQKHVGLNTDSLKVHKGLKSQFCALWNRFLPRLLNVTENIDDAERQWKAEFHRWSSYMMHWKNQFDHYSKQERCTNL
The assay was performed in triplicate using different inhibitor concentrations. […] The assay was carried out in clear, flat-bottom 96-well plates, to which 5 µL distilled water was added to all wells of columns 2–3, rows B-F. Then, 5 µL of the lowest concentration of inhibitor solution was added to the wells of columns 4–5, 5 µL of the median concentration of inhibitor solution was added to the wells of columns 6–7, and 5 µL of the highest concentration of inhibitor solution was added to the wells of columns 8–9. Next, 275 μL enzyme solution was added to the wells, and the plates were incubated for 4 min. Then, 10 μL 2.5 mM DTNB was added to the wells, followed by 10 μL of 32, 16, 8, 4, or 2 mM ATCh solutions to initiate the reactions. The plates were placed in a microplate reader for direct kinetic measurements.
The inhibition constant (Ki) for each inhibitor was calculated by averaging the ATCh hydrolysis rates from three independent experiments. Using GraphPad Prism 8 software, nonlinear regression was used to calculate the Km and Vmax values of the Michaelis-Menten kinetics by plotting [substrate] versus velocity. For the Lineweaver-Burk plots, linear regression was used to plot [1/ATCh] versus […]. Finally, the Ki values were obtained by plotting the slopes against [inhibitor] [20].

Chain of acetylcholinesterase (eeAChE, from Electrophorus electricus) (O42275 24-633): as above

In the case of `COc1cc(/C=C/C(=O)/C=C/c2ccc[n+](Cc3ccc(Br)cc3)c2)ccc1O` [Compound 8h, 1–(4-Bromobenzyl)-3-(1E,4E)-5–(4-hydroxy-3-methoxyphenyl)-3-oxopenta-1,4-dien-1-yl)pyridin-1-ium bromide], in experiment [1], the “Selectivity Index (SI) (AChE)” value amounted to 3 and the IC50 amounted to 630 ± 0.22 nM. Also, the IC50 in experiment [2] was 1800 ± 121 nM.
With `O=C(/C=C/c1ccccc1)/C=C/c1ccc[n+](Cc2ccccc2)c1` [Compound 8a, 1-Benzyl-3-(1E,4E)-3-oxo-5-phenylpenta-1,4-dien-1-yl)pyridin-1-ium bromide], in experiment [1], the “Selectivity Index (SI) (AChE)” value was 14. Besides, in experiment [1], the IC50 was ≤ 56 nM and 56 nM. Also, the “ABTS Inhibition %” value in experiment [3] (0.0312 mg/mL) is recorded as 0.0 ± 0.70%; in experiment [3] (0.0625 mg/mL), 0.3 ± 0.28%; in experiment [3] (0.125 mg/mL), 0.4 ± 0.36%; in experiment [3] (0.25 mg/mL) it was 1.4 ± 0.49%; in experiment [3] (0.5 mg/mL), 2.6 ± 0.38%. In addition, the Ki on eeAChE stood at 102 ± 0.008 nM.
For `COc1cc(/C=C/C(=O)/C=C/c2cc[n+](Cc3ccccc3)cc2)ccc1O` [Compound 7f, 1-Benzyl-4-(1E,4E)-5–(4-hydroxy-3-methoxyphenyl)-3-oxopenta-1,4-dien-1-yl)pyridin-1-ium bromide], the “Selectivity Index (SI) (AChE)” value in experiment [1] was determined as 55. Also, the half-maximal inhibitory concentration (IC50) in experiment [1] turned out to be 7.5 nM. Also, the “ABTS Inhibition %” value in experiment [3] (0.0312 mg/mL) is 5.9 ± 0.47%; in experiment [3] (0.0625 mg/mL) it was 13.7 ± 0.50%; in experiment [3] (0.125 mg/mL) it was 23.7 ± 0.51%; in experiment [3] (0.25 mg/mL) it was 35.5 ± 0.93%; in experiment [3] (0.5 mg/mL), 55.3 ± 1.42%. Moreover, the Ki on eeAChE was 6 ± 0.036 nM.
Regarding `Cc1ccc(C[n+]2ccc(/C=C/C(=O)/C=C/c3ccccc3)cc2)cc1` [Compound 7d, 1–(4-Methylbenzyl)-4-(1E,4E)-3-oxo-5-phenylpenta-1,4-dien-1-yl)pyridin-1-ium bromide], the “Selectivity Index (SI) (AChE)” value in experiment [1] is on record as 4. For the same compound, the IC50 in experiment [1] is 1120 ± 0.14 nM; in experiment [2], 4500 ± 73 nM.
As for `COc1cc(/C=C/C(=O)/C=C/c2cc[n+](Cc3ccc(C)cc3)cc2)ccc1O` [Compound 7i, 4-(1E,4E)-5–(4-Hydroxy-3-methoxyphenyl)-3-oxopenta-1,4-dien-1-yl)-1–(4-methylbenzyl)pyridin-1-ium bromide], in experiment [1], the “Selectivity Index (SI) (AChE)” value is given as 3 and the IC50 is 220 ± 0.17 nM.
On to `O=C(/C=C/c1ccccc1)/C=C/c1ccc[n+](Cc2ccc(F)cc2)c1` [Compound 8b, 1–(4-Fluorobenzyl)-3-(1E,4E)-3-oxo-5-phenylpenta-1,4-dien-1-yl)pyridin-1-ium bromide], for which the “Selectivity Index (SI) (AChE)” value in experiment [1] is listed as 7. Moreover, the IC50 in experiment [1] was ≤ 56 nM and 54 nM. Moreover, the “ABTS Inhibition %” value in experiment [3] (0.0312 mg/mL) is 0.2 ± 0.40%; in experiment [3] (0.0625 mg/mL), 0.3 ± 0.22%; in experiment [3] (0.125 mg/mL) it was 1.0 ± 0.52%; in experiment [3] (0.25 mg/mL), 2.3 ± 0.64%; in experiment [3] (0.5 mg/mL), 5.1 ± 0.62%. Besides, on eeAChE, the inhibition constant (Ki) turned out to be 90 ± 0.012 nM.
As for `COc1cc(/C=C/C(=O)/C=C/c2ccc[n+](Cc3ccc([N+](=O)[O-])cc3)c2)ccc1O` [Compound 8j, 3-(1E,4E)-5–(4-Hydroxy-3-methoxyphenyl)-3-oxopenta-1,4-dien-1-yl)-1–(4-nitrobenzyl)pyridin-1-ium bromide], the concentration for half-maximal inhibition (IC50) in experiment [1] is 660 ± 0.21 nM; in experiment [2], 9800 ± 90 nM.
Consider `COc1cc(/C=C/C(=O)/C=C/c2ccc[n+](Cc3ccc(C)cc3)c2)ccc1O` [Compound 8i, 3-(1E,4E)-5–(4-Hydroxy-3-methoxyphenyl)-3-oxopenta-1,4-dien-1-yl)-1–(4-methylbenzyl)pyridin-1-ium bromide], for which, in experiment [1], the “Selectivity Index (SI) (AChE)” value came to 11 and the IC50 was 270 ± 21 nM. Further, the IC50 in experiment [2] amounted to 2500 ± 100 nM.
Turning to `Cc1c(C)c2c(c(C)c1O)CCC(C)(C(=O)O)O2` (stereo not shown) [Trolox, reference compound], the “ABTS Inhibition %” value in experiment [3] (0.0312 mg/mL) was found to be 9.3 ± 1.2%; in experiment [3] (0.0625 mg/mL), 24.7 ± 1.2%; in experiment [3] (0.125 mg/mL) it was 51.0 ± 2.3%; in experiment [3] (0.25 mg/mL), 91.5 ± 1.8%; in experiment [3] (0.5 mg/mL), 93.9 ± 0.1%.
In the case of `O=C(/C=C/c1ccccc1)/C=C/c1ccc[n+](Cc2ccc([N+](=O)[O-])cc2)c1` [Compound 8e, 1–(4-Nitrobenzyl)-3-(1E,4E)-3-oxo-5-phenylpenta-1,4-dien-1-yl)pyridin-1-ium bromide], the “Selectivity Index (SI) (AChE)” value in experiment [1] was 2. Moreover, the 50% inhibitory concentration (IC50) in experiment [2] was 2700 ± 63 nM.
`O=C(/C=C/c1ccccc1)/C=C/c1cc[n+](Cc2ccc([N+](=O)[O-])cc2)cc1` [Compound 7e, 1–(4-Nitrobenzyl)-4-(1E,4E)-3-oxo-5-phenylpenta-1,4-dien-1-yl)pyridin-1-ium bromide]: in experiment [1], the “Selectivity Index (SI) (AChE)” value was found to be 5 and the IC50 amounted to 800 ± 0.12 nM. For the same compound, in experiment [2], the 50% inhibitory concentration (IC50) stood at 3900 ± 52 nM.
In the same order, the values of `COc1cc(/C=C/C(=O)/C=C/c2cc[n+](Cc3ccc(Br)cc3)cc2)ccc1O` [Compound 7h, 1–(4-Bromobenzyl)-4-(1E,4E)-5–(4-hydroxy-3-methoxyphenyl)-3-oxopenta-1,4-dien-1-yl)pyridin-1-ium bromide] are 10, 710 ± 0.16 nM and 6360 ± 106 nM.
In the case of `O=C(/C=C/c1ccccc1)/C=C/c1cc[n+](Cc2ccc(Br)cc2)cc1` [Compound 7c, 1–(4-Bromobenzyl)-4-(1E,4E)-3-oxo-5-phenylpenta-1,4-dien-1-yl)pyridin-1-ium bromide], in experiment [1], the “Selectivity Index (SI) (AChE)” value was determined as 3 and the 50% inhibitory concentration (IC50) came to 280 ± 0.2 nM.
As to `Cc1ccc(C[n+]2cccc(/C=C/C(=O)/C=C/c3ccccc3)c2)cc1` [Compound 8d, 1–(4-Methylbenzyl)-3-(1E,4E)-3-oxo-5-phenylpenta-1,4-dien-1-yl)pyridin-1-ium bromide], in experiment [1], the “Selectivity Index (SI) (AChE)” value is listed as 4 and the IC50 turned out to be 630 ± 0.2 nM. The half-inhibitory concentration (IC50) in experiment [2] amounted to 2500 ± 79 nM.
As to `COc1cc(/C=C/C(=O)/C=C/c2cc[n+](Cc3ccc([N+](=O)[O-])cc3)cc2)ccc1O` [Compound 7j, 4-(1E,4E)-5–(4-Hydroxy-3-methoxyphenyl)-3-oxopenta-1,4-dien-1-yl)-1–(4-nitrobenzyl)pyridin-1-ium bromide], the concentration for half-maximal inhibition (IC50) was found to be 230 ± 0.19 nM in experiment [1] and 1400 ± 83 nM in experiment [2].
Take `Cc1c(C)c2c(c(C)c1O)CC[C@@](C)(CCC[C@H](C)CCC[C@H](C)CCCC(C)C)O2` [α-tocopherol, reference compound]: the “ABTS Inhibition %” value in experiment [3] (0.0312 mg/mL) was 6.9 ± 2.3%; in experiment [3] (0.0625 mg/mL) it was 15.9 ± 1.0%; in experiment [3] (0.125 mg/mL) it was 29.7 ± 1.3%; in experiment [3] (0.25 mg/mL), 56.4 ± 0.72%; in experiment [3] (0.5 mg/mL) it was 90.2 ± 0.04%.
For `O=C(/C=C/c1ccccc1)/C=C/c1ccc[n+](Cc2ccc(Br)cc2)c1` [Compound 8c, 1–(4-Bromobenzyl)-3-(1E,4E)-3-oxo-5-phenylpenta-1,4-dien-1-yl)pyridin-1-ium bromide], in experiment [1], the “Selectivity Index (SI) (AChE)” value is recorded as 1 and the IC50 came to 1160 ± 0.17 nM.
